These results are taken from patent US5756510A, “Benzamide analogs useful as PARP (ADP-ribosyltransferase, ADPRT) DNA repair enzyme inhibitors” (Newcastle University Ventures Limited, priority 1994, dated 1998).

Data set [1] addresses T1, PARP (Mus musculus, UniProt P11103).
T1 construct: endogenous in cells; host or cells: L1210 murine leukaemia cells, permeabilised by hypotonic buffer and cold shock
As to the kind of experiment: PARP inhibition assay ([32P]-NAD incorporation into TCA-precipitated poly(ADP-ribose) in permeabilised L1210 cells, oligonucleotide activated). The format is biochemical, L1210 murine leukaemia cells. The text has this: In principle, the PARP assay used relies upon activating endogenous PARP (as hereinafter described) in cells containing exogenous [^32 P]-NAD^+ introduced therein by suspending the cells in a solution of [^32 P]-NAD^+ to which they have been rendered permeable in an initial pretreatment step. The poly(ADP-ribose) which is then synthesised by the enzyme can be precipitated by trichloracetic acid (TCA) and the amount of radio-labelled ^32 p incorporated therein measured, e.g. using a scintillation counter, to give a measure of the activity of the PARP under the particular conditions of the experiment. By repeating the experiment following the same procedure, and under the same conditions, in the presence of each compound to be tested the reduction in enzyme activity, representative of the inhibitory effect of the test compound, can then be ascertained from the reduction, if any, of the amount of [^32 P] measured in the TCA precipitated poly(ADP-ribose).
Thus, with a range of different compounds a set of comparative values for inhibitory activity can be obtained.
In practice, L1210 murine leukaemia cells were used as the source of the PARP enzyme after being rendered permeable to exogenous [^32 P]NAD by exposure to hypotonic buffer and cold shock. […] This oligonucleotide sequence snaps back on itself to form a double-stranded molecule with a single blunt end and provides an effective substrate for activation of PARP.
The experimental protocol adopted, in which a synthetic oligonucleotide as mentioned above is introduced as a specific activator of PARP, discriminates between PARP and other mono-ADP-ribosyltransferases in the cells.
The oligonucleotide having the palindromic sequence […], synthesised by conventional means, was vacuum dried and stored as pellets in a freezer. Before use, it was made up to 200 μg/ml in 10 mM Tris/HCl, pH 7.8, with each pellet being dissolved completely in […] of buffer. The solution was then heated to 60° C. in a water bath for 15 minutes, and allowed to cool slowly to ensure correct reannealing. After adding 9.5 ml of buffer, the concentration was checked by measuring the optical density of a diluted sample at 260 nm. The main solution was then diluted to a concentration of 200 μg/ml and stored in 500 μl aliquots in a freezer, ready for use.
The L1210 cells used as the source of the PARP enzyme were maintained as a suspension culture in RPMI medium+10% foetal bovine serum+glutamine and antibiotics (penicillin and streptomycin). HEPES and sodium bicarbonate were also added, and the cells were seeded in 100 ml of medium such that there would be a concentration of approximately 8×10^5 /ml at the time of carrying out an assay.
The solubility of the compound was then checked by adding a quantity of the DMSO solution to a quantity of the isotonic buffer, in the required final proportions that were to be used in carrying out the assay, and after an interval the solution was examined under a microscope for any signs of crystals forming.
A desired quantity of the cells, ascertained by counting with a haemocytometer, was then centrifuged (1500 rpm in a "Europa" model 24M centrifuge for 5 minutes), the supernatant removed, and the pellets obtained were resuspended in 20 ml Dul A at 4° C. before centrifuging again at 1500 rpm and 4° C. After again removing the supernatant, the cells were resuspended at a concentration of 3×10^7 cells/ml in ice cold hypotonic buffer and left for 30 minutes on ice. Nine volumes were then added of ice cold isotonic buffer, and the cells, now rendered permeable to exogenous NAD^+, were then used within the next hour for carrying out an assay.

The nature of data set [2]: solubility check of test compound in assay buffer (DMSO solution added to isotonic buffer, microscope). The format is physicochemical. The text has this: The compounds being tested were generally made up as a concentrated solution in DMSO (Dimethyl sulphoxide). The solubility of the compound was then checked by adding a quantity of the DMSO solution to a quantity of the isotonic buffer, in the required final proportions that were to be used in carrying out the assay, and after an interval the solution was examined under a microscope for any signs of crystals forming.

Where [3] appears, read: 10 μM, read-out: % Inhibition (PARP).
The mark [4] stands for this setting: 30 μM, read-out: % Inhibition (PARP).
[5] abbreviates: 100 μM, read-out: % Inhibition (PARP).
Setting [6] is: read-out: % Inhibition (PARP), 10 μM.
Setting [7] is: read-out: % Inhibition (PARP), 30 μM.
Setting [8] is: unit printed broken, attached to the next cell.

Read-outs that look alike come from different tables or passages of the source.

T1 sequence (P11103 whole entry): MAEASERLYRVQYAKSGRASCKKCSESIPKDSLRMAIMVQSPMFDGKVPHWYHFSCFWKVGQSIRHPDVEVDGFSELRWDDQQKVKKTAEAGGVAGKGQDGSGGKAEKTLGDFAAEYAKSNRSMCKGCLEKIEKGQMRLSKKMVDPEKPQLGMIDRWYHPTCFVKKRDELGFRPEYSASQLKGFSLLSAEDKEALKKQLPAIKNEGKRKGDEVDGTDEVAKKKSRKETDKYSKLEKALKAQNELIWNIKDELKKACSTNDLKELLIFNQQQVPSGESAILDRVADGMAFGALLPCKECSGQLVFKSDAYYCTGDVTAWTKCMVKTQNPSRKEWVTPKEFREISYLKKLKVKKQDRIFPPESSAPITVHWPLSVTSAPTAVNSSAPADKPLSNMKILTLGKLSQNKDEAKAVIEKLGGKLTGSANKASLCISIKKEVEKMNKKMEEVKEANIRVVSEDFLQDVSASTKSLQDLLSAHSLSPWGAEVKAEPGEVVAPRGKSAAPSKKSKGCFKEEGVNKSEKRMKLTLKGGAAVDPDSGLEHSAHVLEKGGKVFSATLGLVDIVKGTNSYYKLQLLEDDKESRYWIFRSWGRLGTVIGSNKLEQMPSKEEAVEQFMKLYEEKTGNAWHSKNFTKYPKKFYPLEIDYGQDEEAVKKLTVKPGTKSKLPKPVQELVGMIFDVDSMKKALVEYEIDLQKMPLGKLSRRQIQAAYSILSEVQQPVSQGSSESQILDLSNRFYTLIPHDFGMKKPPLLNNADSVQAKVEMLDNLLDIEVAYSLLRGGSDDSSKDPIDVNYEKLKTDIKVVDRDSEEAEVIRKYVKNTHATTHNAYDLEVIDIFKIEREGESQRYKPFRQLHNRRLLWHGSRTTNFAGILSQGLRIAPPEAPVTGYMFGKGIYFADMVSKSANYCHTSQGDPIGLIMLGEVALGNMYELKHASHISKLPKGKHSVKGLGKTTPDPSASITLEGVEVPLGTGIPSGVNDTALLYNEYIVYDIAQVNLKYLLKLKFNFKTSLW

As a reminder, the inhibition is the drop in the measured response relative to a control, in per cent. Take `NC(=O)c1cccc(O)c1` [3-hydroxybenzamide, reference compound]: the inhibition at 10 µM in data set [1] (setting [3]) was 35%. In data set [1] (setting [4]), the inhibition at 30 µM turned out to be 59%. The inhibition at 100 µM in data set [1] (setting [5]) was 81%.

For the compound `COc1cccc(C(N)=O)c1` [3-methoxybenzamide, reference compound], the inhibition at 10 µM in data set [1] (setting [3]) came out at 55%. Moreover, the inhibition at 30 µM in data set [1] (setting [4]) came out at 78%. The inhibition at 100 µM in data set [1] (setting [5]) came out at 89%.

For the compound `NC(=O)c1cccc(OCc2ccccc2)c1` [NU1005, 3-benzyloxybenzamide], the inhibition at 100 µM in data set [1] (setting [5]) was determined as 76%. For the same compound, the inhibition at 10 µM in data set [1] (setting [6]) is 34%. Moreover, the inhibition at 30 µM in data set [1] (setting [7]) was 60%.

Consider `[N-]=[N+]=Nc1ccc(COc2cccc(C(N)=O)c2)cc1` [NU1013, 3-(4-Azidobenzyloxy)benzamide], for which, in data set [1] (setting [6]), the inhibition at 10 µM is 49%. Also, the inhibition at 30 µM in data set [1] (setting [7]) turned out to be 28%. Further, in data set [1] (read-out: % Inhibition (PARP), 100 μM), the inhibition at 100 µM was determined as 43%.

Take `NC(=O)c1cccc(OCc2ccc(N)cc2)c1` [NU1016, 3-(4-aminobenzyloxy)benzamide]: the inhibition at 10 µM in data set [1] (setting [3]) was 40%. In addition, in data set [1] (setting [4]), the inhibition at 30 µM came to 66%. Also, the inhibition at 100 µM in data set [1] (setting [5]) is 84%.

For `NC(=O)c1cccc(OCCCCCBr)c1` [NU1019, 3-(5-Bromopentyloxy)benzamide], the inhibition at 30 µM in data set [1] (setting [4]) was found to be 54%. Besides, in data set [1] (setting [5]), the inhibition at 100 µM was found to be 81%.

As for `NC(=O)c1cccc(OCc2ccc3c(c2)OCO3)c1` [NU1020, 3-(Piperonyloxy)benzamide], the inhibition at 10 µM in data set [1] (setting [3]) came out at 51%. The inhibition at 30 µM in data set [1] (setting [4]) came out at 70%. Moreover, in data set [1] (setting [5]), the inhibition at 100 µM is 93%.

`NC(=O)c1cccc(OCCCCCCCCn2cnc3c(N)ncnc32)c1` [NU1022, 3-(8-adenos-9-yloctyloxy)benzamide]: the inhibition at 10 µM in data set [1] (setting [3]) amounted to 30%.

Consider `NC(=O)c1cccc(OCCCCCn2cnc3c(Cl)ncnc32)c1` [NU1023, 3-[5-(6-Chloropurin-9-yl)pentyloxy]benzamide], for which, in data set [1] (setting [3]), the inhibition at 10 µM came out at 26%. Also, the inhibition at 30 µM in data set [1] (setting [4]) was 45%. The inhibition at 100 µM in data set [1] (setting [5]) is 71%.

`NC(=O)c1cccc(OCCCCCn2cnc3c(N)ncnc32)c1` [NU1024, 3-(5-Adenos-9-ylpentyloxy)benzamide]: the inhibition at 10 µM in data set [1] (setting [3]) was determined as 16%. In addition, the inhibition at 30 µM in data set [1] (setting [4]) is 42%. Moreover, in data set [1] (setting [5]), the inhibition at 100 µM stood at 67%.

For orientation: IC50 means the concentration at which inhibition is half-maximal. Read a high IC50 as weaker potency. Regarding `O=c1[nH]cnc2c(O)cccc12` [NU1026, 8-hydroxyquinazolin-4-[3H]one], the “PARP inhibitory activity in words” value in data set [1] is given as “quite strong PARP inhibitory activity”. Besides, the inhibition at 0.5 µM in data set [1] (0.5 μM) stood at 18%. Further, the inhibition at 1 µM in data set [1] (1 μM (1.0 μM)) came to 38%. Also, in data set [1] (2.0 μM), at 2 µM the inhibition was 54%. Further, the inhibition at 10 µM in data set [1] (setting [3]) was 78%. Also, in data set [1] (setting [4]), the inhibition at 30 µM came out at 87%. Further, the inhibition at 100 µM in data set [1] (setting [5]) turned out to be 95%. In data set [1] (setting [8]), this compound displayed a concentration for half-maximal inhibition (IC50) of 2000 nM.

`NC(=O)c1cccc(OCCCCCCCCCCCCn2cnc3c(N)ncnc32)c1` [NU1029, 3-(12-adenos-9-yldodecyloxy)benzamide]: the inhibition at 10 µM in data set [1] (setting [3]) came out at 26%. Moreover, the inhibition at 30 µM in data set [1] (setting [4]) is 51%. Moreover, the inhibition at 100 µM in data set [1] (setting [5]) is 74%.

Turning to `CC(=O)Nc1ccc(COc2cccc(C(N)=O)c2)cc1` [NU1030, 3-(N-acetyl-4-aminobenzyloxy)benzamide], the inhibition at 10 µM in data set [1] (setting [3]) is 49%. For the same compound, the inhibition at 30 µM in data set [1] (setting [4]) is 70%. The inhibition at 100 µM in data set [1] (setting [5]) turned out to be 84%.

Take `C=CCOc1cccc(C(N)=O)c1` [NU1031, 3-Allyloxybenzamide]: in data set [1] (setting [3]), the inhibition at 10 µM came to 21%. The inhibition at 30 µM in data set [1] (setting [4]) is 58%. For the same compound, the inhibition at 100 µM in data set [1] (setting [5]) was determined as 80%.

As to `NC(=O)c1cccc2c1OCO2` [NU1034, 2,3-methylenedioxy benzamide], the inhibition at 10 µM in data set [1] (setting [3]) turned out to be 66%. In data set [1] (setting [5]), the inhibition at 100 µM was 94%. In data set [1] (setting [8]), this compound displayed an IC50 of 5300 nM.

For `NC(=O)c1cccc(OCc2ccc(C(F)(F)F)cc2)c1` [NU1036, 3-(4-Trifluoromethylbenzyloxy)benzamide], the inhibition at 10 µM in data set [1] (setting [3]) was 3%. In data set [1] (setting [4]), the inhibition at 30 µM was 13%. The inhibition at 100 µM in data set [1] (setting [5]) was found to be 10%.

`CCCCOc1cccc(C(N)=O)c1` [NU1038, 3-butoxybenzamide]: the inhibition at 10 µM in data set [1] (setting [3]) amounted to 23%. In data set [1] (setting [4]), the inhibition at 30 µM was 50%. In data set [1] (setting [5]), the inhibition at 100 µM is 78%.

`CCCCCOc1cccc(C(N)=O)c1` [NU1039, 3-pentyloxybenzamide]: the inhibition at 10 µM in data set [1] (setting [3]) amounted to 18%. The inhibition at 30 µM in data set [1] (setting [4]) came to 45%. Also, in data set [1] (setting [5]), the inhibition at 100 µM stood at 66%.

Consider `CC(C)(C)c1nc2c(C(N)=O)cccc2o1` [NU1040, 2-t-butylbenzoxazole-4-carboxamide], for which, in data set [1], the “PARP inhibitory activity in words” value was “relatively high inhibitory activity even at low concentrations”. For the same compound, in data set [1] (setting [3]), the inhibition at 10 µM amounted to 87%. Also, in data set [1] (setting [4]), the inhibition at 30 µM is 88%. In data set [1] (setting [5]), the inhibition at 100 µM was 93%. Besides, the IC50 in data set [1] (setting [8]) stood at 8400 nM.

On to `COC(=O)c1ccc(COc2cccc(C(N)=O)c2)cc1` [NU1041, 3-(4-carboxymethylbenzyloxy)benzamide], for which the “insolubility at assay concentration” value in data set [2] (10 μM), in data set [2] (30 μM) and in data set [2] (100 μM) was “insol” each time.

For `NC(=O)c1cccc(OCCc2ccccc2)c1` [NU1048, 3-(Phenethyl)oxybenzamide], the inhibition at 10 µM in data set [1] (setting [3]) is 30%. Moreover, the inhibition at 30 µM in data set [1] (setting [4]) is 50%. For the same compound, the inhibition at 100 µM in data set [1] (setting [5]) was 72%.

In the case of `NC(=O)c1cccc2oc(-c3ccccc3)nc12` [NU1051, 2-Phenylbenzoxazole-4-carboxamide], in data set [1], the IC50 worked out at 2100 nM and the “PARP inhibitory activity in words” value was “relatively high inhibitory activity even at low concentrations”. In data set [1] (setting [3]), the inhibition at 10 µM came out at 82%.

As to `COc1ccc(-c2nc3c(C(N)=O)cccc3o2)cc1` [NU1054, 2-(4-Methoxyphenyl)benzoxazole-4-carboxamide], in data set [1], the IC50 turned out to be 1100 nM and the “PARP inhibitory activity in words” value was “relatively high inhibitory activity even at low concentrations”.

Take `Cc1nc2c(C(N)=O)cccc2o1` [NU1056, 2-Methylbenzoxazole-4-carboxamide]: in data set [1], the IC50 is 9500 nM and the “PARP inhibitory activity in words” value is “relatively high inhibitory activity even at low concentrations”.

Take `COc1cccc2c(=O)[nH]c(C)nc12` [NU1063, 8-Methoxy-2-methylquinazolin-4-[3H]-one]: in data set [1], half-maximal inhibition (IC50) required 780 nM and the “PARP inhibitory activity in words” value is “potent PARP inhibitors”.

The compound `COc1cccc2c(=O)[nH]c(-c3ccccc3)nc12` [NU1065, 8-Methoxy-2-phenylquinazolin-4-[3H]-one] displayed an IC50 in data set [1] of 4200 nM.

For `O=c1[nH]c(-c2ccccc2)nc2c(O)cccc12` [NU1068, 8-Hydroxy-2-phenylquinazolin-4-[3H]-one], in data set [1], half-maximal inhibition (IC50) required 530 nM and the “PARP inhibitory activity in words” value is given as “potent PARP inhibitors”.

Turning to `Cc1nc2c(C)cccc2c(=O)[nH]1` [NU1069, 2,8-Dimethylquinazolin-4-[3H]-one], in data set [1], the IC50 was determined as 200 nM and the “PARP inhibitory activity in words” value is “potent PARP inhibitors”.

Take “CGGAATTCCG: small synthetic single strand oligonucleotide having the palindromic sequence CGGAATTCCG (chemistry not given here) [reference compound]”: the “activation of PARP in words” value in data set [1] is “potent activator of the enzyme”.
